Results on 14 compounds are retold here after US20230373972A1, “PIPERAZINE DERIVATIVE, PREPARATION METHOD THEREFOR AND USE THEREOF” (Zhejiang Hisun Pharmaceutical Co., Ltd., priority 2020, published 2023).

What is called IC50 is the concentration that gives 50% inhibition. A high value points to a need for much substance.

Experiment [1] deals with T1, Native human Factor XIa protease (Homo sapiens, UniProt P03951).
T1 construct: The Native human Factor XIa protease was purchased from Abcam; purchased Abcam ab62411
The experiment in a line: Inhibition of activity of Factor XIa protease (chromogenic substrate S-2366). The settings on record: S-2366 1 mM, 37° C. 10 minutes, absorption at 405 nm. The class given is biochemical. From the text:
The following method was used to determine an inhibition degree of the compound of the present invention on an activity of Native human Factor XIa protease in vitro. In the method, a Factor XIa chromogenic substrate was used to test the inhibition degree on the activity of the Factor XIa protease. The Native human Factor XIa protease was purchased from Abcam (article number ab62411), and S-2366 was purchased from Chromogenix (article number 82109039). An experimental process was briefly described as follows: a test compound was dissolved in DMSO to prepare a 10 mM storage solution first, then the compound was diluted with a Factor XIa reaction buffer (100 mM Tris-HCl, 200 mM NaCl, 0.02% Tween 20, pH 7.4) by a quadruple gradient, and a final concentration of the test compound in a reaction system ranged from 10,000 nM to […]. The reaction was carried out in a 384-well microplate. 2 μL of the test compounds at different concentrations diluted with the reaction buffer were added to wells first, and 2 μL of 1% DMSO (a final concentration of DMSO in the reaction system was 0.1%) was used to replace blank and control wells. Subsequently, 8 μL of enzyme working solution (a final concentration of Factor XIa was […]) was added to each well, and 8 μL of Factor XIa reaction buffer was used to replace the blank well, centrifuged for 30 seconds, and incubated on ice for 5 minutes. Finally, 10 μL of substrate working solution (a final concentration of S-2366 was 1 mM) was added to each well, and centrifuged for 30 seconds, and the reaction was started. The solution was incubated at 37° C. for 10 minutes to determine a light absorption value at 405 nm. By comparing with a light absorption value of the control group (0.1% DMSO), a percentage inhibition rate of the compound at each concentration was calculated, and nonlinear regression analysis was carried out on value-inhibition rate with the concentration of the compound by GraphPad Prism 5 software, so as to obtain an IC50 value of the compound, as shown in Table 1.

In a further experiment the test system is human plasma. The experiment can be described thus: In-vitro anticoagulation on human plasma (APTT kit, coagulation time). The settings on record: concentration of the compound when the coagulation time (APTT) was prolonged twice. The protocol:
The following method was used to determine the in-vitro anticoagulation of the compound of the present invention in the human plasma. In the method, an APTT kit of the MediRox company was used to test. The APTT kit was purchased from MediRox (article number MRX930), and the human plasma was prepared internally.
The preparation of the human plasma was briefly described as follows: human plasma was collected in a blood collection tube containing sodium citrate, and centrifuged at 3,000 rpm for 10 minutes at room temperature, and plasma was collected, and packaged separately and stored at −80° C.
An APTT test process was briefly described as follows: a test compound was dissolved in DMSO to prepare a 10 mM storage solution first, then the test compound was diluted with DMSO by a triple gradient, and a final concentration of the test compound in a reaction system ranged from 217 μM to 0.03 μM. 4 μL, of test compounds at different concentrations diluted with DMSO were added to a centrifuge tube containing 180 μL of plasma, and 4 μL of DMSO was added to a blank group, shaken and mixed evenly, and incubated at 37° C. for 5 minutes. Subsequently, an APTT reagent was placed in a reagent holder according to instrument requirements, the incubated plasma sample was placed in a detection position of a coagulation analyzer, and a coagulation time was determined and recorded (s). With a final concentration of the compound as an abscissa and Ratio (Ratio=TiT0, wherein T0 was a coagulation time of a blank control, and Ti was a coagulation time of a compound to be tested) as an ordinate, a coagulation dose-effect curve was drawn by Graph Pad Prisms, and a concentration of the compound when the coagulation time was prolonged twice was calculated, which was namely a CT2 value, as shown in Table 2.

T1 sequence (P03951 388-625 limits assumed): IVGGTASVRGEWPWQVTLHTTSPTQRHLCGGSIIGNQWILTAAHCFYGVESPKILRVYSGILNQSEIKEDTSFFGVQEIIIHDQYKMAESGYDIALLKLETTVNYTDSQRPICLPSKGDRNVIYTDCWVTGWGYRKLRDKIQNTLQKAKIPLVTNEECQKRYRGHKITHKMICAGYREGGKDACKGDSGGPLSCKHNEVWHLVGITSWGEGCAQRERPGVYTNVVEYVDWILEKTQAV
T1 sequence (P03951 19-387 partner limits assumed): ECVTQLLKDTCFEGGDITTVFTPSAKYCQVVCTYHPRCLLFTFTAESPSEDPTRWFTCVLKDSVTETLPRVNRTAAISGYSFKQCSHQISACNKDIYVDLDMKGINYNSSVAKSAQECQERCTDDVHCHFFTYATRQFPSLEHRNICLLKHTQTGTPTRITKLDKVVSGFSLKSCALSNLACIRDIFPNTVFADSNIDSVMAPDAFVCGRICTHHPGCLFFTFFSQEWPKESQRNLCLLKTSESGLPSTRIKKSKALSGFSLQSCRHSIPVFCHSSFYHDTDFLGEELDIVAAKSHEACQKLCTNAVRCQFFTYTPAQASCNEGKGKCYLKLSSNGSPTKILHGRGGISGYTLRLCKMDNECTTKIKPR

Regarding `Cn1cc2ccc(NC(=O)C(Cc3ccccc3)N3CC(=O)N(c4cc(Cl)ccc4-n4cnnn4)CC3=O)cc2n1` (stereo not shown) [Example 31, 2-(4-(5-Chloro-2-(1H-tetrazol-1-yl)phenyl)-2,5-dioxopiperazin-1-yl)-N-(2-methyl-2H-indazol-6-yl)-3-phenylpropanamide], half-maximal inhibition in experiment [1] (IC50) was put at 38.9 nM. Moreover, in the experiment with human plasma, the “CT2” value is 13.7 µM.

With `O=C(Nc1ccc2c(cnn2C(F)F)c1)C(Cc1ccccc1)N1CC(=O)N(c2cc(Cl)ccc2-n2cnnn2)CC1=O` (stereo not shown) [Example 33, 2-(4-(5-chloro-2-(1H-tetrazol-1-yl)phenyl)-2,5-dioxopiperazin-1-yl)-N-(1-(difluoromethyl)-1H-indazol-5-yl)-3-phenylpropanamide], the IC50 in experiment [1] was found to be 26.1 nM. In addition, the “CT2” value in the experiment on human plasma was determined as 18.5 µM.

The compound `O=C(Nc1ccc2nn(C(F)F)cc2c1)C(Cc1ccccc1)N1CC(=O)N(c2cc(Cl)ccc2-n2cnnn2)CC1=O` (stereo not shown) [Example 34, 2-(4-(5-Chloro-2-(1H-tetrazol-1-yl)phenyl)-2,5-dioxopiperazin-1-yl)-N-(2-(difluoromethyl)-2H-indazol-5-yl)-3-phenylpropanamide] yielded an IC50 in experiment [1] of 10.4 nM. Further, the “CT2” value in the experiment with human plasma stood at 5.9 µM.

Take `NC(=O)c1ccc(NC(=O)C(Cc2ccccc2)N2CC(=O)N(c3cc(Cl)ccc3-n3cnnn3)CC2=O)cc1F` (stereo not shown) [Example 35, 4-(2-(4-(5-Chloro-2-(1H-tetrazol-1-yl)phenyl)-2,5-dioxopiperazin-1-yl)-3-phenylpropanamido)-2-fluorobenzamide]: in experiment [1], the IC50 stood at 32 nM. Moreover, the “CT2” value in the experiment on human plasma turned out to be 5.8 µM.

In experiment [1], `O=C(Nc1ccn2nccc2c1)C(Cc1ccccc1)N1CC(=O)N(c2cc(Cl)ccc2-n2cnnn2)CC1=O` (stereo not shown) [Example 37, 2-(4-(5-chloro-2-(1H-tetrazol-1-yl)phenyl)-2,5-dioxopiperazin-1-yl)-3-phenyl-N-(pyrazolo[1.5-a]pyridin-5-yl)propanamide] returned an IC50 of 17.6 nM. Moreover, in the experiment on human plasma, the “CT2” value came to 7.5 µM.

The compound `Cn1cc2cc(NC(=O)C(Cc3ccc(F)cc3)N3CC(=O)N(c4cc(Cl)ccc4-n4cnnn4)CC3=O)ccc2n1` (stereo not shown) [Example 41, 2-(4-(5-Chloro-2-(1H-tetrazol-1-yl)phenyl)-2,5-dioxopiperazin-1-yl)-3-(4-fluorophenyl)-N-(2-methyl-2H-indazol-5-yl)propanamide] displayed an IC50 in experiment [1] of 38.5 nM. The “CT2” value in the experiment with human plasma came out at 8.5 µM.

In turn, `O=C(O)c1ccc(NC(=O)C(Cc2ccccc2)N2CC(=O)N(c3cc(Cl)ccc3-n3cnnn3)CC2=O)cc1` (stereo not shown) [Example 52, 4-(2-(4-(5-chloro-2-(1H-tetrazol-1-yl)phenyl)-2,5-dioxopiperazin-1-yl)-3-phenylpropanamido)benzoic Acid] gave an IC50 in experiment [1] of 17.6 nM. In the experiment with human plasma, the “CT2” value amounted to 2.0 µM.

With `O=C(Nc1ccc2nn(C(F)F)cc2c1)[C@H](Cc1ccccc1)N1CC(=O)N(c2cc(Cl)ccc2-n2cc(Cl)nn2)CC1=O` [Example 97, (S)-2-(4-(5-chloro-2-(4-chloro-1H-1,2,3-triazol-1-yl)phenyl)-2,5-dioxopiperazin-1-yl)-N-(2-(difluoromethyl)-2H-indazol-5-yl)-3-phenylpropanamide], inhibition in experiment [1] was half-maximal at 21.2 nM (IC50). Also, the “CT2” value in the experiment with human plasma is 12.5 µM.

In experiment [1], `COc1ccc(CC(C(=O)Nc2ccc3nn(C)cc3c2)N2CC(=O)N(c3cc(Cl)ccc3-n3cc(Cl)nn3)CC2=O)cc1` (stereo not shown) [Example 108, 2-(4-(5-chloro-2-(4-chloro-1H-1,2,3-triazol-1-yl)phenyl)-2,5-dioxopiperazin-1-yl)-3-(4-methoxyphenyl)-N-(2-methyl-2H-indazol-5-yl)propanamide] registered an IC50 of 35.8 nM. The “CT2” value in the experiment on human plasma came to 10.6 µM.

In experiment [1], `[2H]C([2H])([2H])n1cc2cc(NC(=O)C(Cc3ccccc3)N3CC(=O)N(c4cc(Cl)ccc4-n4cc(Cl)nn4)CC3=O)ccc2n1` (stereo not shown) [Example 109, 2-(4-(5-Chloro-2-(4-chloro-1H-1,2,3-triazol-1-yl)phenyl)-2,5-dioxopiperazin-1-yl)-N-(2-(methyl-d3)-2H-indazol-5-yl)-3-phenylpropanamide] yielded an IC50 of 12.7 nM. Further, the “CT2” value in the experiment on human plasma stood at 12.6 µM.

Regarding `Cn1ccc(C[C@@H](C(=O)Nc2ccc3nn(C)cc3c2)N2CC(=O)N(c3cc(Cl)ccc3-n3cc(Cl)nn3)CC2=O)n1` [Example 112, (S)-2-(4-(5-chloro-2-(4-chloro-1H-1,2,3-triazole-1-yl)phenyl)-2,5-dioxopiperazin-1-yl)-3-(1-methyl-1H-pyrazole-3-yl)-N-(2-methyl-2H-indazol-5-yl)propionamide], the IC50 in experiment [1] was 25.6 nM. The “CT2” value with human plasma amounted to 5.6 µM.

The compound `[2H]C([2H])([2H])n1cc2cc(NC(=O)C(Cc3ccc(F)cc3)N3CC(=O)N(c4cc(Cl)ccc4-n4cc(Cl)nn4)CC3=O)ccc2n1` (stereo not shown) [Example 114, 2-(4-(5-chloro-2-(4-chloro-1H-1,2,3-triazol-1-yl)phenyl)-2,5-dioxopiperazin-1-yl)-3-(4-fluorophenyl)-N-(2-(methyl-d3)-2H-indazol-5-yl)propanamide] returned an IC50 in experiment [1] of 48.6 nM. The “CT2” value in the experiment with human plasma was 14.9 µM.

In experiment [1], `Cn1cc2cc(NC(=O)C(Cc3ccc(C#N)cc3)N3CC(=O)N(c4cc(Cl)ccc4-n4cc(Cl)nn4)CC3=O)ccc2n1` (stereo not shown) [Example 115, 2-(4-(5-chloro-2-(4-chloro-1H-1,2,3-triazol-1-yl)phenyl)-2,5-dioxopiperazin-1-yl)-3-(4-cyanophenyl)-N-(2-methyl-2H-indazol-5-yl)propanamide] gave an IC50 of 46.7 nM. Also, the “CT2” value in the experiment on human plasma came to 11.7 µM.

Regarding `Cn1cc2cc(NC(=O)C(Cc3ccccc3)N3CC(=O)N(c4cc(Cl)ccc4-n4cc(C(F)(F)F)nn4)CC3=O)ccc2n1` (stereo not shown) [Example 121, 2-(4-(5-Chloro-2-(4-(trifluoromethyl)-1H-1,2,3-triazol-1-yl)phenyl)-2,5-dioxopiperazin-1-yl)-N-(2-methyl-2H-indazol-5-yl)-3-phenylpropanamide], the IC50 in experiment [1] amounted to 32.7 nM. For the same compound, in the experiment with human plasma, the “CT2” value turned out to be 16.1 µM.
